According to PubChem BioAssay (NCI):
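Following 48 hours of exposure in 96-well plates, responses at five concentrations were used to interpolate endpoints linearly. Definition used: TGI = concentration required for complete inhibition of growth.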

Assays:
Experiment in all cases: NCI tumour cell line growth inhibition, 48 h
[1] = system: HCT-116 colon
[2] = system: NCI/ADR-RES ovarian
[3] = system: MALME-3M melanoma
[4] = system: LOX IMVI melanoma
[5] = system: SK-OV-3 ovarian
[6] = system: K-562 leukemia
[7] = system: HT29 colon
[8] = system: NCI-H460 lung
[9] = system: EKVX NSCLC
[10] = system: A498 renal
[11] = system: HL-60(TB) leukemia
[12] = system: MDA-N
[13] = system: SK-MEL-5 melanoma
[14] = system: NCI-H522 lung
[15] = system: PC-3 prostate
[16] = system: HOP-92 NSCLC
[17] = system: SK-MEL-2 melanoma
[18] = system: IGROV1 ovarian
[19] = system: TK-10 renal
[20] = system: HCT-15 colon
[21] = system: OVCAR-4 ovarian
[22] = system: RPMI-8226 leukemia
[23] = system: OVCAR-8 ovarian
[24] = system: BT-549 breast
[25] = system: KM12 colon
[26] = system: ACHN renal
[27] = system: U251 CNS
[28] = system: MOLT-4 leukemia
[29] = system: T-47D breast
[30] = system: HCC-2998 colon
[31] = system: OVCAR-5 ovarian
[32] = system: UACC-62 melanoma
[33] = system: RXF 393 renal
[34] = system: MDA-MB-435
[35] = system: COLO 205 colon
[36] = system: SN12C renal
[37] = system: UACC-257 melanoma
[38] = system: SF-268 CNS
[39] = system: HOP-62 NSCLC
[40] = system: NCI-H23 lung
[41] = system: SNB-75 CNS
[42] = system: CAKI-1 renal
[43] = system: MDA-MB-231 breast
[44] = system: HS 578T breast
[45] = system: SK-MEL-28 melanoma
[46] = system: DU-145 prostate
[47] = system: SW-620 colon
[48] = system: 786-0 renal
[49] = system: OVCAR-3 ovarian
[50] = system: MCF7 breast
[51] = system: SF-295 CNS
[52] = system: CCRF-CEM leukemia
[53] = system: SNB-19 CNS
[54] = system: SF-539 CNS
[55] = system: NCI-H226 lung
[56] = system: A549 NSCLC
[57] = system: UO-31 renal
[58] = system: M14 melanoma

OC1CCCN(C2(c3cccs3)CCCCC2)C1 (stereo not drawn)
TGI [1]: > 100 µM | TGI [2]: > 100 µM | TGI [3]: > 100 µM | TGI [4]: > 100 µM | TGI [5]: > 100 µM | TGI [6]: > 100 µM | TGI [7]: > 100 µM | TGI [8]: > 100 µM | TGI [9]: > 100 µM | TGI [10]: > 100 µM | TGI [11]: > 100 µM | TGI [12]: > 100 µM | TGI [13]: > 100 µM | TGI [14]: > 100 µM | TGI [15]: > 100 µM | TGI [16]: > 100 µM | TGI [17]: > 100 µM | TGI [18]: > 100 µM | TGI [19]: > 100 µM | TGI [20]: > 100 µM | TGI [21]: > 100 µM | TGI [22]: > 100 µM | TGI [23]: > 100 µM | TGI [24]: > 100 µM | TGI [25]: > 100 µM | TGI [26]: > 100 µM | TGI [27]: > 100 µM | TGI [28]: > 100 µM | TGI [29]: > 100 µM | TGI [30]: > 100 µM | TGI [31]: > 100 µM | TGI [32]: > 100 µM | TGI [33]: > 100 µM | TGI [34]: > 100 µM | TGI [35]: > 100 µM | TGI [36]: > 100 µM | TGI [37]: > 100 µM | TGI [38]: > 100 µM | TGI [39]: > 100 µM | TGI [40]: > 100 µM | TGI [41]: > 100 µM | TGI [42]: > 100 µM | TGI [43]: > 100 µM | TGI [44]: > 100 µM | TGI [45]: > 100 µM | TGI [46]: > 100 µM | TGI [47]: > 100 µM | TGI [48]: > 100 µM | TGI [49]: > 100 µM | TGI [50]: > 100 µM | TGI [51]: > 100 µM

O=C1C=CC(=O)C(CNc2ccc(C(=O)OC34CC5CC(CC(C5)C3)C4)cc2)=C1Br
TGI [1]: 27.1 µM | TGI [2]: 18.4 µM | TGI [3]: 15.5 µM | TGI [4]: 23.4 µM | TGI [5]: 34.2 µM | TGI [6]: 32.7 µM | TGI [7]: 16.8 µM | TGI [8]: 29.4 µM | TGI [9]: 20.5 µM | TGI [10]: 33.1 µM | TGI [12]: 33 µM | TGI [13]: 22 µM | TGI [14]: 1.44 µM | TGI [52]: 7.41 µM | TGI [15]: 19 µM | TGI [16]: 12.3 µM | TGI [17]: 38.2 µM | TGI [18]: 15.6 µM | TGI [19]: 28.6 µM | TGI [20]: 21.4 µM | TGI [21]: 22.6 µM | TGI [22]: 33.4 µM | TGI [23]: 23.9 µM | TGI [53]: 35.4 µM | TGI [24]: 20.5 µM | TGI [25]: 19.7 µM | TGI [54]: 5.6 µM | TGI [26]: 28.4 µM | TGI [27]: 38.2 µM | TGI [28]: 25.5 µM | TGI [29]: 18.5 µM | TGI [30]: 28.3 µM | TGI [55]: 32.4 µM | TGI [31]: 38 µM | TGI [32]: 21.6 µM | TGI [33]: 17.5 µM | TGI [34]: 65.5 µM | TGI [35]: 24.1 µM | TGI [36]: 34.1 µM | TGI [56]: 49.3 µM | TGI [37]: 29.1 µM | TGI [57]: 21.2 µM | TGI [38]: 27.4 µM | TGI [39]: 62.2 µM | TGI [40]: 23.9 µM | TGI [41]: 19.7 µM | TGI [42]: 12.5 µM | TGI [43]: 24.3 µM | TGI [44]: 27.2 µM | TGI [46]: 94.8 µM | TGI [58]: 60 µM | TGI [47]: 68.1 µM | TGI [48]: 28.3 µM | TGI [49]: 39.4 µM | TGI [50]: 48.1 µM | TGI [51]: 33.5 µM

NS(=O)(=O)c1ccc(NC(=S)/N=C/c2c(O)c3ccccc3oc2=O)cc1
TGI [1]: > 100 µM | TGI [2]: > 100 µM | TGI [4]: > 100 µM | TGI [5]: > 100 µM | TGI [6]: > 100 µM | TGI [7]: > 100 µM | TGI [8]: > 100 µM | TGI [9]: > 100 µM | TGI [10]: 64.1 µM | TGI [11]: > 100 µM | TGI [12]: > 100 µM | TGI [13]: 96.1 µM | TGI [14]: 88.6 µM | TGI [52]: > 100 µM | TGI [15]: > 100 µM | TGI [16]: 68.1 µM | TGI [17]: > 100 µM | TGI [18]: 97.1 µM | TGI [19]: > 100 µM | TGI [20]: > 100 µM | TGI [21]: > 100 µM | TGI [22]: > 100 µM | TGI [23]: > 100 µM | TGI [53]: 85.5 µM | TGI [24]: > 100 µM | TGI [25]: > 100 µM | TGI [54]: > 100 µM | TGI [26]: > 100 µM | TGI [27]: > 100 µM | TGI [28]: > 100 µM | TGI [29]: > 100 µM | TGI [30]: > 100 µM | TGI [55]: 61 µM | TGI [31]: > 100 µM | TGI [32]: > 100 µM | TGI [33]: 80.9 µM | TGI [34]: > 100 µM | TGI [35]: > 100 µM | TGI [36]: > 100 µM | TGI [56]: > 100 µM | TGI [37]: > 100 µM | TGI [57]: 87.6 µM | TGI [38]: > 100 µM | TGI [39]: > 100 µM | TGI [40]: > 100 µM | TGI [41]: 53.3 µM | TGI [42]: 62.4 µM | TGI [43]: 65 µM | TGI [44]: 99.6 µM | TGI [46]: > 100 µM | TGI [58]: > 100 µM | TGI [47]: > 100 µM | TGI [48]: > 100 µM | TGI [49]: > 100 µM | TGI [50]: > 100 µM | TGI [51]: > 100 µM
